Legend:
Triticum aestivum [1] = test: Drought stress greenhouse test Part C, visual scoring vs stressed control plants; format: in vivo; conditions: spray application 25 g/ha, efficacy range of 3-4 pots
Method: Seeds of monocotyledonous and dicotyledonous crop plants were sown in sandy loam in plastic or wood-fiber pots, covered with soil or sand and cultivated in a greenhouse under good growth conditions. The trial plants were treated at the early leaf stage (BBCH10-BBCH13). To assure uniform water supply before commencement of stress, the potted plants were supplied with water by dam irrigation prior to substance application. The inventive compounds were first formulated as wettable powders (WP) or dissolved in a solvent mixture. The further dilution was effected with water supplemented with 0.2% wetting agent (e.g. agrotin). The finished spray liquor was sprayed onto the green parts of the plant at an equivalent water application rate of 600 l/ha. Substance application was followed immediately by stress treatment of the plants. For this purpose, the wood-fiber pots were transferred in plastic inserts in order to prevent them from subsequently drying out too quickly. Drought stress was induced by gradual drying out under the following conditions: “Day”: 14 hours with illumination at 26-30° C. “Night”: 10 hours without illumination at 18-20° C. The duration of the respective stress phases was guided mainly by the condition of the stressed control plants. It was ended (by re-irrigating and transfer to a greenhouse with good growth conditions) as soon as irreversible damage was observed on the stressed control plants. The end of the stress phase was followed by an about 4-7-day recovery phase, during which the plants were once again kept under good growth conditions in a greenhouse. The duration of the recovery phase was guided mainly by when the trial plants had attained a state which enabled visual scoring of potential effects, and was therefore variable. Once this juncture had been reached, the appearance of the plants treated with test substances was recorded in comparison to the stressed control plants by the following categories: [table] For each substance and dosage, 3-4 pots were treated and evaluated. […] BRSNS=Brassica napus TRZAS=Triticum aestivum

Triticum aestivum [2] = test: Drought stress test on wheat Part D, reduction in damage intensity from fresh weights; format: in vivo; conditions: efficacy = reduction in damage intensity (fresh weight) under drought stress, at least three repeats
Source text: Wheat grains were sown in a standardized number in sandy loam soil plastic pots, covered with soil or sand and grown in a greenhouse under good growth conditions. Pots with uneven degrees of emergence were excluded prior to the start of the trial. The treatment with test substances was effected at the early leaf stage (BBCH10-BBCH13). To assure uniform water supply, the potted plants were supplied with water by dam irrigation prior to substance application. The inventive compounds were first formulated as wettable powders (WP) or dissolved in a solvent mixture. The further dilution was effected with water supplemented with 0.2% wetting agent (e.g. agrotin). The finished spray liquor was sprayed onto the green parts of the plant at an equivalent water application rate of 600 l/ha. Substance application was followed immediately by stress treatment of the plants. Drought stress was induced by gradual drying out under the following conditions: “Day”: 14 hours with illumination at 26-30° C. “Night”: 10 hours without illumination at 18-20° C. The duration of the respective stress phases was guided mainly by the condition of the stressed control plants. It was ended (by re-irrigating and transfer to a greenhouse with good growth conditions) as soon as irreversible damage was observed on the stressed control plants. The end of the stress phase was followed by an about 7-day recovery phase, during which the plants were once again kept under good growth conditions in a greenhouse. The exact duration of the recovery phase was variable for reasons related to the trial. At the end of the recovery phase, the fresh weights of the plant parts above ground were determined. By comparison with unstressed control plants which were kept under good growth conditions over the entire duration of the trial, percentage damage intensities were first calculated from the fresh weight values. The reduction in damage intensity resulting from treatment with test substance was then calculated by the following formula: [formula] EF: Efficacy DIs: Damage intensity of the stressed control plants DIt: Damage intensity of the stressed plants treated with test compound The values reported in table D-1 below are results from at least three repeats. BRSNS=Brassica napus TRZAS=Triticum aestivum

[3] = target: T1, phosphatase ABI1 via the co-regulator RCAR11/PYR1 (Arabidopsis thaliana, UniProt O49686+P49597); test: In vitro inhibition of the phosphatase ABI1 via the co-regulator RCAR11/PYR1, MUP dephosphorylation; format: biochemical; design: dose or concentration left out as unconfirmed; conditions: in a solution of DMSO and water; fluorescence at 460 nm
T1 sequence (O49686 1-191): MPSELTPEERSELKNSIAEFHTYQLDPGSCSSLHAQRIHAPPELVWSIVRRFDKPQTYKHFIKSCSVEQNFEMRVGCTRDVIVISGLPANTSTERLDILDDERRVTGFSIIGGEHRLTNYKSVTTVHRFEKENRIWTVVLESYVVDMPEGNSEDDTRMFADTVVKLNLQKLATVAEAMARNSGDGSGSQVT
T1 sequence (P49597 1-434): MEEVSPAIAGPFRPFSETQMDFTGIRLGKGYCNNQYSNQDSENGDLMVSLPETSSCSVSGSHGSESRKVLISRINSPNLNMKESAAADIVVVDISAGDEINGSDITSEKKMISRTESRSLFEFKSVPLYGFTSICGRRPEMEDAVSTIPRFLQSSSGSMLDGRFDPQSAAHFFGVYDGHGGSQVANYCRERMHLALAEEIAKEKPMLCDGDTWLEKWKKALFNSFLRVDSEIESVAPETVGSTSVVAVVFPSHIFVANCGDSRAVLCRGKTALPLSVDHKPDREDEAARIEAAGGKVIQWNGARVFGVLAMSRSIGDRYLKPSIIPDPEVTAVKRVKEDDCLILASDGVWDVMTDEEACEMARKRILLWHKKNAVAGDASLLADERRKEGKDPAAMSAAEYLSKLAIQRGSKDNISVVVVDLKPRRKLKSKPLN
Source text: Effects of the phytohormone abscisic acid (ABA) on the behavior of plants under abiotic stress and the mechanism of action of ABA are described in the literature (cf. Abrams et al., WO97/23441, Park et al. Science, 2009, 324, 1068; Grill et al. Science, 2009, 324, 1064; Tanokura et al. Biophysics, 2011, 7, 123; Schroeder et al. Plant J. 2010, 61, 290). Therefore, it is possible with the aid of a suitable in vitro test system to derive a correlation between the action of ABA and the stress response of a plant under abiotic stress. In the event of water deficiency (drought stress), plants form the phytohormone abscisic acid (ABA). This binds, along with a co-regulator (Regulatory Component of ABA-Receptor=RCAR according to Grill et al. Science, 2009, 324, 1064 or PYR/PYL according to Cutler et al. Science, 2009, 324, 1068), to a phosphatase (e.g. ABI1, a type 2C protein phosphatase, also abbreviated to PP2C) and inhibits its activity. As a result, a “downstream” kinase (e.g. SnRK2) is no longer dephosphorylated. This kinase, which is thus active, via phosphorylation of transcription factors (e.g. AREB/ABF, cf. Yoshida et al., 2010, 61, 672), switches on a genetic protection program to increase drought stress tolerance. The assay described hereinafter utilizes the inhibition of the phosphatase ABI1 via the co-regulator RCAR11/PYR1 aus Arabidopsis thaliana. For the determination of activity, the dephosphorylation of 4-methylumbelliferyl phosphate (MUP) was measured at 460 nm. The in vitro assay was conducted in Greiner 384-well PS microplates F-well, using two controls: a) 0.5% dimethyl sulfoxide (DMSO) and b) 5 μM abscisic acid (ABA). The assay described here was generally conducted with substance concentrations of the appropriate chemical test substances in a concentration range of 0.1 μM to 100 μM in a solution of DMSO and water. The substance solution thus obtained, if necessary, was stirred with esterase from porcine liver (EC 3.1.1.1) at room temperature for 3 h and centrifuged at 4000 rpm for 30 min. A total volume of 45 μl was introduced into each cavity of the microplate, having the following composition: • 1) 5 μl of substance solution, i.e. a) DMSO 5% or b) abscisic acid solution or c) the corresponding example compound of the general formula (I) dissolved in 5% DMSO. • 2) 20 μl of enzyme buffer mix, composed of a) 40% by vol. of enzyme buffer (10 mL contain equal proportions by volume of 500 mM Tris-HCl pH 8, 500 mM NaCl, 3.33 mM MnCl2, 40 mM dithiothreitol (DTT)), b) 4% by vol. of ABI1 dilution (protein stock solution was diluted so as to give, after addition, a final concentration in the assay of 0.15 μg ABI1/well), c) 4% by vol. of RCAR11 dilution (enzyme stock was diluted so as to give, on addition of the dilution to the enzyme buffer mix, a final concentration in the assay of 0.30 μg enzyme/well), d) 5% by vol. of Tween20 (1%), e) 47% by vol. H2O bi-dist. • 3) 20 μl of substrate mix, composed of a) 10% by vol. of 500 mM Tris-HCl pH8, b) 10% by vol. of 500 mM NaCl, c) 10% by vol. of 3.33 mM MnCl2, d) 5% by vol. of 25 mM MUP, 5% by vol. of Tween20 (1%), 60% by vol. of H2O bi-dist.
Enzyme buffer mix and substrate mix were made up 5 minutes prior to the addition and warmed to a temperature of 35° C. On completion of pipetting of all the solutions and on completion of mixing, the plate was incubated at 35° C. for 20 minutes. Finally, a relative fluorescence measurement was made at 35° C. with a BMG Labtech “POLARstar Optima” microplate reader using a 340/10 nm excitation filter and a 460 nm emission filter. The efficacy of the compounds of the general formula (I) is reported in the table which follows using abscisic acid […] as comparative substance (No. 37) according to the following classification: ++++ (inhibition≧90%), +++ (90%>inhibition≧70%), ++ (70%>inhibition≧50%), + (50%>inhibition≧30%). […]

Structure (SMILES)	EF [%] (TRZAS) (Triticum aestivum [2]; 250 g/ha)	ABI1 inhibition [3]	EF [%] (TRZAS) (Triticum aestivum [2]; 25 g/ha)	further results
CCC1(C)CC(=O)N(CCOC)c2ccc(NS(=O)(=O)Cc3ccc(Cl)cc3)cc21 (racemic) [F7-165]	–	–	–	Effect (TRZAS) (Triticum aestivum [1]): 10-20
N#CCCCN1C(=O)CCc2cc(NS(=O)(=O)Cc3cccc(Cl)c3)ccc21 [A48-166]	13%	++ (70%>inhibition≧50%)	–	–
COC(=O)CN1C(=O)CCc2cc(NS(=O)(=O)Cc3ccccc3[N+](=O)[O-])ccc21 [A50-177]	19%	++ (70%>inhibition≧50%)	–	–
COC(=O)CCN1C(=O)CCc2cc(NS(=O)(=O)Cc3cccc(C)c3)ccc21 [A51-153]	16%	++ (70%>inhibition≧50%)	–	–
COC(=O)CCN1C(=O)CCc2cc(NS(=O)(=O)Cc3ccc(Cl)cc3)ccc21 [A51-165]	–	++++ (inhibition≧90%)	18%	–
COC(=O)CCN1C(=O)CCc2cc(NS(=O)(=O)Cc3cccc(Cl)c3)ccc21 [A51-166]	20%	++ (70%>inhibition≧50%)	–	–
COC(=O)CCN1C(=O)CCc2cc(NS(=O)(=O)Cc3ccc(C(F)(F)F)cc3)ccc21 [A51-178]	–	++++ (inhibition≧90%)	10%	–
COC(=O)CCN1C(=O)CCc2cc(NS(=O)(=O)Cc3ccc(C#N)cc3)ccc21 [A51-181]	15%	++++ (inhibition≧90%)	–	–
COC(=O)CN1C(=O)CC(C)(C)c2cc(NS(=O)(=O)Cc3ccc(F)cc3)ccc21 [B50-158]	18%	–	–	–
COC(=O)CN1C(=O)CC(C)(C)c2cc(NS(=O)(=O)Cc3ccccc3Cl)ccc21 [B50-168]	14%	–	–	–
COC(=O)CN1C(=O)CC(C)(C)c2cc(NS(=O)(=O)Cc3ccc([N+](=O)[O-])cc3)ccc21 [B50-175]	–	–	12%	–
COC(=O)CN1C(=O)CC(C)(C)c2cc(NS(=O)(=O)Cc3ccc(C(F)(F)F)cc3)ccc21 [B50-178]	20%	–	–	–
COC(=O)CN1C(=O)CC(C)(C)c2cc(NS(=O)(=O)Cc3cccc(C(F)(F)F)c3)ccc21 [B50-179]	15%	–	–	–
COC(=O)CCN1C(=O)CC(C)(C)c2cc(NS(=O)(=O)Cc3ccc(F)cc3)ccc21 [B51-158]	–	–	13%	–
COC(=O)CCN1C(=O)CC(C)(C)c2cc(NS(=O)(=O)Cc3cccc(Br)c3)ccc21 [B51-173]	–	–	16%	–
CCOC(=O)CCN1C(=O)CC(C)(C)c2cc(NS(=O)(=O)Cc3ccc(F)cc3)ccc21 [B52-158]	–	–	10%	–
CCOC(=O)CCN1C(=O)CC(C)(C)c2cc(NS(=O)(=O)Cc3cccc(Cl)c3)ccc21 [B52-166]	14%	–	–	–
CCOC(=O)CCN1C(=O)CC(C)(C)c2cc(NS(=O)(=O)Cc3ccc(Br)cc3)ccc21 [B52-172]	14%	–	–	–
CCOC(=O)CCN1C(=O)CC(C)(C)c2cc(NS(=O)(=O)Cc3cccc(Br)c3)ccc21 [B52-173]	–	–	14%	–
CCOC(=O)CCN1C(=O)CC(C)(C)c2cc(NS(=O)(=O)Cc3ccc([N+](=O)[O-])cc3)ccc21 [B52-175]	10%	–	–	–
Cc1ccc(S(=O)(=O)Nc2ccc3c(c2)C2(CCC2)CC(=O)N3CC2CC2)cc1 [J3-50, 4-Methyl-N-[1′-(cyclopropylmethyl)-2′-oxo-2′,3′-dihydro-1′H-spiro[cyclobutyl-1,4′-quinolin]-6′-yl]phenylsulfonamide]	–	+ (50%>inhibition≧30%)	–	–
CC1=CC(=O)CC(C)(C)[C@@]1(O)/C=C/C(C)=C\C(=O)O [abscisic acid, reference compound]	–	++++ (inhibition≧90%)	–	–

From patent US20170027172A1, “USE OF SUBSTITUTE OXO TETRAHYDROQUINOLINE SULFONAMIDES OR SALTS THEREOF FOR RAISING STRESS TOLERANCE OF PLANTS” (BAYER CROPSCIENCE AKTIENGESELLSCHAFT, priority 2014, published 2017)
